Experimental findings from PubChem BioAssay AID1996 are described below.

The solubility (kinetic) is the concentration staying in solution when a stock, usually in DMSO, is diluted into the medium.

Values after ≈ are worked out from the molar mass of the structure shown.

The conditions of the data set: buffer; pH 7.4; 200.0 µM.
In turn, `COC(=O)C1CCN(C(=O)c2cc(=O)[nH]c3ccccc23)CC1` registered a solubility (kinetic) of more than 47.2 µg/mL. Take `Fc1ccc(Nc2c3c(nc4ccccc24)CCC3)cc1`: the kinetic solubility turned out to be 33.1 µg/mL (≈ 119 µM). In the case of `Cc1nc(NC(=O)c2cccnc2Cl)sc1C`, the solubility (kinetic) is more than 40.2 µg/mL. In turn, `COc1ccccc1Nc1ccc(C(=O)O)cc1[N+](=O)[O-]` had a kinetic solubility of more than 43.2 µg/mL.

`CC(C)(C)NC(=O)NC(=O)COC(=O)c1cc[n+]([O-])cc1` gave a kinetic solubility of more than 44.3 µg/mL. Next, `CCc1ccccc1NC(=O)C1CC(c2ccc(OC)cc2)=NO1` (stereo not given): 45.3 µg/mL (≈ 140 µM); `CN(C)C=Nc1ccc2nc3c(cc2c1)[nH]c1ccccc13`: more than 43.3 µg/mL. The compound `Cc1ccc(S(=O)(=O)N2CCCCC2)c2nsnc12` yielded a kinetic solubility of 31.9 µg/mL (≈ 107 µM).

The compound `Brc1ccc(-c2csc(N3CCCCCC3)n2)cc1` had a solubility (kinetic) of 1.2 µg/mL (≈ 3.56 µM). Regarding `O=C(Cc1ncon1)Nc1ccc(F)c(F)c1F`, the solubility (kinetic) is 38.1 µg/mL (≈ 148 µM). To `O=C(Nc1ccc(S(=O)(=O)N2CCOCC2)cc1)c1cccnc1` belongs more than 52.1 µg/mL. Regarding `O=C(NC1CCCCC1)c1cccnc1Sc1ccccc1`, the kinetic solubility is 11.2 µg/mL (≈ 35.8 µM). The compound `CC(=O)Nc1ccc(C(=O)N2CCc3cc4c(cc3C2C)OCCCO4)cc1` (stereo not given) registered a kinetic solubility of more than 57.1 µg/mL. On to `CN(CC(=O)Nc1cccc(S(=O)(=O)N2CCCC2)c1)Cc1ccccc1`, for which the solubility (kinetic) was found to be 17.8 µg/mL (≈ 45.9 µM). In the case of `CC(=O)NCc1ccc(C(=O)O)cc1`, the kinetic solubility was more than 29 µg/mL. To `CCN1CCN(C(=S)NC(=O)c2cc(OC)c(OC)c(OC)c2)CC1` belongs more than 55.1 µg/mL; to `CN1C(=S)SC2CS(=O)(=O)CC21C` (stereo not given), more than 35.6 µg/mL; to `Cc1csc(SCC(=O)NC2CCS(=O)(=O)C2)n1` (stereo not given), more than 46 µg/mL. As for `Cc1cc(C)c(C(=O)C(C)OC(=O)c2ccccn2)cc1C` (stereo not given), the solubility (kinetic) is 17.7 µg/mL (≈ 59.5 µM). For `CCN(Cc1ccccc1)C(=O)COc1ccccc1`, the solubility (kinetic) is more than 40.4 µg/mL.

Consider `CSc1nc(N2CCOCC2)c2sccc2n1`, for which the kinetic solubility amounted to 38.6 µg/mL (≈ 144 µM). `O=c1[nH]c(N2CCCCCC2)nc2ncn(Cc3ccccc3)c12` had a solubility (kinetic) of 13 µg/mL (≈ 40.2 µM). Next, `O=c1[nH]c(CSc2ccccc2)nc2c1oc1ccccc12`: 2.2 µg/mL (≈ 7.13 µM); `CCC(=O)NCc1csc(-c2cccs2)n1`: more than 37.9 µg/mL; `Cc1ccc(Cl)cc1Nc1nc(-c2cccnc2)cs1`: 0.2 µg/mL (≈ 0.663 µM).

Regarding `CN1CCC2(CC1)NC(=O)c1ccccc1N2.Cl`, the kinetic solubility is more than 40.2 µg/mL. To `CC(C)(C)c1csc(NC(=O)CSC2=NCCS2)n1` belongs 10.6 µg/mL (≈ 33.6 µM); to `Cl.OCCNCc1cccc(Br)c1`, more than 40 µg/mL. With `Cc1cc(C)c(C#N)c(OCc2ccc(Cl)nc2)n1`, the kinetic solubility was found to be 8.5 µg/mL (≈ 31.1 µM).

Consider `Cc1ccc(-c2cc[n+](Cc3ccccc3)cc2)cc1.[Cl-]`, for which the kinetic solubility was more than 44.4 µg/mL.

Regarding `CN1C(N)=NC(=O)/C1=C\c1ccc(Br)cc1`, the kinetic solubility was found to be 33.7 µg/mL (≈ 120 µM).

As to `Cc1cn(C2CCC(CO)O2)c(=O)[nH]c1=O` (stereo not given), the kinetic solubility was more than 33.9 µg/mL. Next, `CC(NC(=O)Cc1ccc([N+](=O)[O-])cc1)c1ccc2c(c1)OCO2` (stereo not given): 7.9 µg/mL (≈ 24.1 µM); `CCOC(=O)c1c(C)nsc1NCc1ccccc1`: 8.5 µg/mL (≈ 30.8 µM). To `O=C(NCc1ccc2c(c1)OCO2)c1ccccc1` belongs 38 µg/mL (≈ 149 µM); to `CC1CCC(N(CCCN)Cc2ccco2)CC1C` (stereo not given), 31.6 µg/mL (≈ 120 µM). Next, `CN1CCCN(C(=O)CNC(=O)c2ccc(Cl)cc2Cl)CC1`: 50.8 µg/mL (≈ 148 µM); `O=C(CNC(=O)c1ccccc1Cl)OC1CCOC1=O` (stereo not given): 42.1 µg/mL (≈ 141 µM). For the compound `CN1C(=O)C(c2ccccc2)C(=O)N(C)C1=O`, the solubility (kinetic) worked out at 30.5 µg/mL (≈ 131 µM). Next, `Clc1ccc(OCCCCCN2CCOCC2)cc1`: 26.6 µg/mL (≈ 93.7 µM). Next, `O=C(NC(=S)NC12CC3CC(CC(C3)C1)C2)c1ccc(F)cc1`: 2.3 µg/mL (≈ 6.92 µM); `CCOC(=O)c1c(C)[nH]c(C(=O)COC(=O)c2cc(C)oc2C)c1C`: 3 µg/mL (≈ 8.64 µM); `O=C(COc1ccc(Cl)cc1Br)OCC(=O)c1ccc[nH]1`: 6 µg/mL (≈ 16.1 µM). To `CC(=O)c1cccc(Nc2cc(C)nc3c(C)cccc23)c1.Cl` belongs more than 49 µg/mL; to `CC(CN1CCCC1)OC(=O)Cc1ccc(Cl)cc1.Cl` (stereo not given), more than 47.7 µg/mL.

On to `Brc1ccc2ncnc(NCc3cccnc3)c2c1`, for which the kinetic solubility is 34.3 µg/mL (≈ 109 µM).

Compound `O=[N+]([O-])c1ccccc1CN1CCN(Cc2ccc3ccccc3c2)CC1` showed a kinetic solubility of 3.9 µg/mL (≈ 10.8 µM). To `Cc1nc(/C(=N/O)C(N)=O)cs1` belongs more than 27.8 µg/mL; to `CC1=C(C(=O)OCC2CCCCC2)C(c2ccc(F)cc2)NC(=O)N1` (stereo not given), 0.5 µg/mL (≈ 1.44 µM); to `OC(CNCCNc1ncccc1C(F)(F)F)COc1ccc(F)cc1` (stereo not given), 50.9 µg/mL (≈ 136 µM). In the case of `NS(=O)(=O)c1ccc(CNC(=S)NC(=O)c2ccco2)cc1`, the kinetic solubility is more than 50.9 µg/mL. The compound `CN(C)c1cc[n+](CC(=O)Nc2cccc([N+](=O)[O-])c2)cc1.[Cl-]` gave a kinetic solubility of more than 50.5 µg/mL.

As for `CN(C)C(CNC(=O)c1cccc(C#N)c1)c1ccco1` (stereo not given), the solubility (kinetic) amounted to 39.3 µg/mL (≈ 139 µM). In turn, `CC(=O)Nc1ccc(C23CC4CC(CC(C4)C2)C3)cc1` gave a kinetic solubility of 0.8 µg/mL (≈ 2.97 µM). Compound `CC(C)C(=O)Nc1ccccc1-c1nc2ccccc2[nH]c1=O` had a kinetic solubility of more than 46.1 µg/mL. To `CCOc1cc(CC(=O)N[C@@H](CC(C)C)c2ccccc2N2CCCCC2)ccc1C(=O)O` belongs more than 67.9 µg/mL; to `COCCCNC(=S)N1CCC(NC(=O)c2ccco2)CC1`, more than 48.8 µg/mL.

`CCCCNC(=O)CC1NCCNC1=O` (stereo not given) displayed a kinetic solubility of more than 32 µg/mL. `O=C(CCC(=O)OCC(=O)c1cccc([N+](=O)[O-])c1)NC1CCCCC1` gave a kinetic solubility of more than 54.4 µg/mL.

In turn, `COc1ccc(C(=O)O/N=C(\N)c2ccccn2)cc1` registered a kinetic solubility of more than 40.7 µg/mL. Next, `CCOc1ccc(C(=O)NCCc2cnc[nH]2)cc1`: more than 38.9 µg/mL. Next, `Nc1ccc(Nc2nc3ccccc3[nH]2)cc1`: 25.8 µg/mL (≈ 115 µM). To `CC(C)C(C)NC(=O)Cn1cnc2c(oc3ccccc32)c1=O` (stereo not given) belongs 17.3 µg/mL (≈ 55.2 µM); to `O=C(COC(=O)c1cc(=O)[nH]c2ccccc12)c1ccccc1`, 8.8 µg/mL (≈ 28.6 µM). In turn, `COCC(=O)Nc1ccccc1-c1ccccc1` had a solubility (kinetic) of more than 36.2 µg/mL. The compound `Cc1c(-c2ccncc2)oc2ccc(Br)cc2c1=O` registered a solubility (kinetic) of less than 0.7 µg/mL. To `CCN(Cc1ccccc1)C(=O)c1cccnc1` belongs 35.9 µg/mL (≈ 149 µM); to `CCCCCC(=O)Nc1ccc(-c2csc(N)n2)cc1`, 5.9 µg/mL (≈ 20.4 µM).

On to `O=C(CNS(=O)(=O)c1cccs1)NCc1ccc(F)cc1`, for which the kinetic solubility was more than 49.3 µg/mL. The compound `CN(C)CCNC(=O)Cc1ncc(C(F)(F)F)cc1Cl` gave a kinetic solubility of more than 46.5 µg/mL.

Compound `C=CCNC(=S)N1CCC(C(=O)c2ccc(F)cc2)CC1` gave a solubility (kinetic) of more than 46 µg/mL. To `CC(=O)c1ccc(N2C(=O)CC(N3CCN(S(=O)(=O)c4ccc(C)c(C)c4)CC3)C2=O)cc1` (stereo not given) belongs 15 µg/mL (≈ 31.9 µM); to `CN1C(CC(=O)Nc2ccc(Cl)cc2Cl)c2ccccc2CC1(C)C` (stereo not given), 10 µg/mL (≈ 26.5 µM); to `COc1ccc(CC(=O)NC(C)CCc2ccccc2)cc1OC` (stereo not given), more than 49.1 µg/mL. Next, `CC(C)(C)c1ccc(C(=O)n2cnc3ccccc32)cc1`: 34.1 µg/mL (≈ 123 µM); `N#Cc1c(-c2ccc(F)cc2)ccnc1N1CCOCC1`: more than 42.5 µg/mL; `Cc1ccc(NC(=O)COC(=O)CC2CCCC2)cc1F`: 29.5 µg/mL (≈ 101 µM). On to `O=C(NCc1ccccn1)C1CC(c2ccccc2Cl)=NO1` (stereo not given), for which the solubility (kinetic) was more than 47.4 µg/mL.

Consider `Cc1cccc(NC(=O)c2ccc3c(c2)OCCO3)c1C`, for which the solubility (kinetic) was 22.1 µg/mL (≈ 78 µM). The compound `Cc1nc2cc(C(=O)N3CCN(C)CC3)ccc2n1C` displayed a solubility (kinetic) of 40.2 µg/mL (≈ 148 µM). Against the preceding compound, the solubility kinetic is about 1.8-fold higher. Compound `COC(=O)c1ccc(NC(=O)CCN2CCOCC2)cc1` displayed a kinetic solubility of more than 43.9 µg/mL. In the case of `O=c1c2cc(NC(=S)N3CCCC3)ccc2nc2n1CCCCC2`, the kinetic solubility was found to be 6.1 µg/mL (≈ 17.8 µM).

`Cc1ccc(NC(=O)CN2C(=O)CNC2=O)cc1` returned a solubility (kinetic) of more than 37.1 µg/mL. Next, `COc1ccc(OC)c(CNc2c(C=O)c(=O)[nH]c3ccccc23)c1`: less than 0.4 µg/mL. To `COc1ccc2cc(C(=O)C3CCCN(Cc4cccc(C)n4)C3)ccc2c1` (stereo not given) belongs 37.7 µg/mL (≈ 101 µM); to `Cc1ccc(S(=O)(=O)N2CCOCC2)cc1NC(=O)COC(=O)Cc1ccc(Cl)cc1`, 18.7 µg/mL (≈ 40 µM). In the case of `COC(=O)c1[nH]c2c(c1C)C(=O)CC(c1cccc(OC)c1)C2` (stereo not given), the solubility (kinetic) is 2.1 µg/mL (≈ 6.7 µM). For `Cc1cccc(OCCN2CCOCC2)c1C`, the kinetic solubility came out at 24.4 µg/mL (≈ 104 µM). In the case of `Cc1[nH]c2ccc(C(=O)N3CCCC3)cc2c1C`, the solubility (kinetic) was more than 36.3 µg/mL. To `Cc1cc(C)cc(NC(=O)C2CCCN2C(=O)NC2CCCCC2)c1` (stereo not given) belongs 0.7 µg/mL (≈ 2.04 µM); to `CCc1noc(C)c1C(=O)Nc1nc(-c2cccs2)cs1`, 19.3 µg/mL (≈ 60.4 µM). Next, `CCCCCC(=O)Nc1c2c(nc3ccccc13)CCC2`: 18.7 µg/mL (≈ 66.2 µM). Turning to `Nc1ncc(-c2ccccc2)c(-c2ccc(OCc3ccccc3)cc2O)n1`, the kinetic solubility is 0.4 µg/mL (≈ 1.08 µM). To `CCOC(=O)c1cn2ccc(C)cc2n1` belongs more than 30.6 µg/mL; to `Cc1ccc2nc3c(c(Nc4ccccc4)c2c1)CCC3.Cl`, 35 µg/mL. To `CCCCn1c(NC(=O)c2ccco2)c(S(=O)(=O)c2ccc(C)cc2)c2nc3ccccc3nc21` belongs 20.2 µg/mL (≈ 41.3 µM); to `O=C(CNCc1cccc(Cl)c1)N1CCc2ccccc2C1`, 38.9 µg/mL (≈ 124 µM). To `S=C(c1ccc(Br)cc1)N1CCCC1` belongs more than 40.5 µg/mL. `CNS(=O)(=O)c1ccc2c3c(cccc13)C(=O)N2`: the kinetic solubility came to 27.7 µg/mL (≈ 106 µM). Regarding `N#Cc1ccccc1N/C=C/C(=O)c1ccc(Cl)cc1`, the solubility (kinetic) was found to be 0.8 µg/mL (≈ 2.83 µM). `Nc1nonc1OCCOCCOCCOc1nonc1N` gave a kinetic solubility of 45.7 µg/mL (≈ 144 µM). To `O=[N+]([O-])/C=C/c1ccc2c(ccn2Cc2ccccc2)c1` belongs 0.6 µg/mL (≈ 2.16 µM); to `Cc1cc(NC(=O)c2cccc([N+](=O)[O-])c2)no1`, less than 0.2 µg/mL; to `Cc1ccc(S(=O)(=O)N2CCC(C(=O)NCCCN3CCCC3=O)CC2)cc1`, 51.9 µg/mL (≈ 127 µM). For `COc1ccc(S(=O)(=O)N2CC(C)N(C(=O)N(C)C)C2C)cc1` (stereo not given), the solubility (kinetic) is more than 51.2 µg/mL.
